Reference: US20110039783A1, “PEPTIDE HAVING HYPOTENSIVE ACTIVITY” (DAIICHI SANKYO COMPANY LIMITED, priority 2007, published 2011)
Where no end group is shown, it is not given here. [ ]: non-standard residue; d: D form. Cha = N[C@@H](CC1CCCCC1)C(=O)O

Test system: blood pressure of anesthetized Sprague-Dawley IGS male rats
Assay: Hypotensive activity in anesthetized rats, invasive blood pressure measurement after intravenous administration
Format: in vivo, rat
Conditions: for Hypotensive activity (dose/rat) 10 nmol / Hypotensive activity (dose/rat) 30 nmol / Hypotensive activity (dose/rat) 100 nmol: anesthetized rats, intravenous; for Hypotensive activity (dose/rat) 10 nmol: 10 nmol/rat; for Hypotensive activity (dose/rat) 30 nmol: 30 nmol/rat; for Hypotensive activity (dose/rat) 100 nmol: 100 nmol/rat; for dose dependence of hypotensive activity: anesthetized rats, 10, 30, 100 nmol/rat
Method: 50 mg/kg pentobarbital sodium was intraperitoneally administered to 8- to 10-week-old Sprague-Dawley IGS male rats (Charles River Laboratories Japan, Inc.) for anesthesia. Thereafter, a tracheal cannula (PE 250), a femoral vein cannula (PE50), and a femoral artery cannula (PESO) were inserted into each rat. The femoral artery cannula was connected with a pressure transducer (PE23XL; manufactured by Nihon Kohden Corporation), and an apparatus formed by incorporating a blood pressure measurement unit (AP-641G; manufactured by Nihon Kohden Corporation) and an instantaneous heart rate measurement unit (AT-601G; manufactured by Nihon Kohden Corporation) into a multi-purpose preamplifier (RP-6004; manufactured by Nihon Kohden Corporation) was used to record the blood pressure and heart rate of each rat. The blood pressure was calibrated using a mercury manometer included in a stand-type electromanometer (MP-25S; manufactured by Nihon Kohden Corporation). The recording paper was adjusted, such that 10 mm or 20 mm on the recording paper corresponded to 100 mmHg.
Each peptide was dissolved in a concentration of 1 mM or 10 mM in a 0.1% acetic acid solution to prepare a peptide solution. Thereafter, depending on dose, it was diluted with a normal saline containing 0.1% bovine serum albumin (Fr.V). In the case of the dose of 10 nmol/rat, a 1 mM peptide solution was 10 times diluted, and 100 μl of the diluted solution was administered. In the case of the dose of 30 nmol/rat, a 1 mM peptide solution was 10 times diluted, and 300 μL, of the diluted solution was administered. In the case of the dose of 100 nmol/rat, a 10 mM peptide solution was 10 times diluted, and 100 μL of the diluted solution was administered. Each peptide was intravenously administered via the femoral vein cannula, and the systolic blood pressure, diastolic blood pressure, and heart rate were then measured.
Various HC021 derivative peptides were synthesized in accordance with Example 1, and such peptide was then administered to each rat at a dose of 10 nmol/rat, 30 nmol/rat, or 100 mol/rat by the method described in Example 2. Thereafter, the hypotensive activity of each derivative peptide was measured. […] The strength of such activity was determined using a median of activity in repeated experiments. In addition, in order to make a comparison among the activities of various derivative peptides, the strength of hypotensive activity was defined as follows.
Strength of Hypotensive Activity
Extremely strong activity (+++): A decrease in systolic blood pressure is 30 mmHg or more, and the time required for recovery is 5 minutes or more.
Strong activity (++): A decrease in systolic blood pressure is 20 mmHg or more and less than 30 mmHg, or the time required for recovery is less than 5 minutes.
Activity observed (+): A decrease in systolic blood pressure is less than 20 mmHg.
Activity not observed (−)
Various HC021 peptide sequence-substituted products were synthesized in accordance with Example 1, and their hypotensive activity was then measured according to the method of Example 3.

Row | Substance | Hypotensive activity (dose/rat) 10 nmol (Table 3) | Hypotensive activity (dose/rat) 30 nmol (Table 3) | Hypotensive activity (dose/rat) 30 nmol (Table 2) | Hypotensive activity (dose/rat) 100 nmol (Table 2) | further results
1 | ATLGSEDTWKPLSNPRNRDLFPRRLQAYFK-amide [Compound 35] | − | ++ (Strong activity (++): A decrease in systolic blood pressure is 20 mmHg or more and less than 30 mmHg, or the time required for recovery is less than 5 minutes.) |  |  | 
2 | ATLGSEDTWKPLSNPRNRELFFRSLQAYF-amide [Compound 38] | − | − |  |  | Hypotensive activity (dose/rat) 100 nmol (Table 3): ++ (Strong activity (++): A decrease in systolic blood pressure is 20 mmHg or more and less than 30 mmHg, or the time required for recovery is less than 5 minutes.)
3 | ATLGSEDTWKPLSNPRNRELFFRSLQAYFK-amide [Compound 37] | − | − |  |  | Hypotensive activity (dose/rat) 100 nmol (Table 3): ++ (Strong activity (++): A decrease in systolic blood pressure is 20 mmHg or more and less than 30 mmHg, or the time required for recovery is less than 5 minutes.)
4 | ATLRNEDTWKPLSNPRNRDLFFRRLQAYFK-amide [Compound 34] | − | + (Activity observed (+): A decrease in systolic blood pressure is less than 20 mmHg.) |  |  | 
5 | ATVRNEDKWKPLNNPRNRDLFF [Compound 1] |  |  | − | − | Hypotensive activity (dose/rat) 10 nmol (Table 1): −; Hypotensive activity (dose/rat) 30 nmol (Table 1): −; Hypotensive activity (dose/rat) 100 nmol (Table 1): −; Hypotensive activity (dose/rat) 10 nmol (Table 2): −
6 | ATVRNEDKWKPLNNPRNRDLFFRRLQAYF [Compound 9] |  |  | − | +++ (Extremely strong activity (+++): A decrease in systolic blood pressure is 30 mmHg or more, and the time required for recovery is 5 minutes or more.) | 
7 | ATVRNEDKWKPLNNPRNRDLFFRRLQAYF-amide [Compound 10] |  |  | ++ (Strong activity (++): A decrease in systolic blood pressure is 20 mmHg or more and less than 30 mmHg, or the time required for recovery is less than 5 minutes.) |  | Hypotensive activity (dose/rat) 10 nmol (Table 2): −
8 | ATVRNEDKWKPLNNPRNRDLFFRRLQAYFK (not fully specified) [Compound 8] |  |  | − | +++ (Extremely strong activity (+++): A decrease in systolic blood pressure is 30 mmHg or more, and the time required for recovery is 5 minutes or more.) | 
9 | DLFFRRLQAYFK-amide (DLFFRRLQAYFK-NH2) [Compound 17] |  |  | ++ (Strong activity (++): A decrease in systolic blood pressure is 20 mmHg or more and less than 30 mmHg, or the time required for recovery is less than 5 minutes.) | +++ (Extremely strong activity (+++): A decrease in systolic blood pressure is 30 mmHg or more, and the time required for recovery is 5 minutes or more.) | Hypotensive activity (dose/rat) 10 nmol (Table 2): −; dose dependence of hypotensive activity: enhanced their hypotensive activity in a dose-dependent manner
10 | FFRRLQAYFK-amide (FFRRLQAYFK-NH2) [Compound 20] |  |  | − | − | 
11 | FRRLQAYFK-amide (FRRLQAYFK-NH2) [Compound 21] |  |  | − | − | 
12 | FVPIFTYGELQRMQNRDLFFRRLQAYFK-amide (FVPIFTYGELQRMQNRDLFFRRLQAYFK-NH2) [Compound 39] | − | − |  |  | Hypotensive activity (dose/rat) 100 nmol (Table 3): +++ (Extremely strong activity (+++): A decrease in systolic blood pressure is 30 mmHg or more, and the time required for recovery is 5 minutes or more.)
13 | GATVRNEDKWKPLNNPRNRDLFFRRLQAYFK-amide [Compound 7] |  |  | ++ (Strong activity (++): A decrease in systolic blood pressure is 20 mmHg or more and less than 30 mmHg, or the time required for recovery is less than 5 minutes.) |  | Hypotensive activity (dose/rat) 10 nmol (Table 2): −
14 | LFERRLQAYFKNGAEDESAEAFPLEF-amide (LFERRLQAYFKNGAEDESAEAFPLEF-NH2) [Compound 48] | +++ (Extremely strong activity (+++): A decrease in systolic blood pressure is 30 mmHg or more, and the time required for recovery is 5 minutes or more.) |  |  |  | 
15 | LFFRRLQA(Cha)FK-amide (LFFRRLQA[Cha]FK-NH2; N-terminus assumed; SMILES CC(C)C[C@H](NC(=O)[C@H](CCCNC(=N)N)NC(=O)[C@H](CCCNC(=N)N)NC(=O)[C@H](Cc1ccccc1)NC(=O)[C@H](Cc1ccccc1)NC(=O)[C@@H](N)CC(C)C)C(=O)N[C@@H](CCC(N)=O)C(=O)N[C@@H](C)C(=O)N[C@@H](CC1CCCCC1)C(=O)N[C@@H](Cc1ccccc1)C(=O)N[C@@H](CCCCN)C(N)=O) [Compound 45] | + (Activity observed (+): A decrease in systolic blood pressure is less than 20 mmHg.) | +++ (Extremely strong activity (+++): A decrease in systolic blood pressure is 30 mmHg or more, and the time required for recovery is 5 minutes or more.) |  |  | 
16 | LFFRRLQA-amide (LFFRRLQA-NH2) [Compound 26] |  |  | − | − | 
17 | LFFRRLQAHFK-amide (LFFRRLQAHFK-NH2) [Compound 47] | − | − |  |  | Hypotensive activity (dose/rat) 100 nmol (Table 3): +++ (Extremely strong activity (+++): A decrease in systolic blood pressure is 30 mmHg or more, and the time required for recovery is 5 minutes or more.)
18 | LFFRRLQALFK-amide (LFFRRLQALFK-NH2) [Compound 44] | − | ++ (Strong activity (++): A decrease in systolic blood pressure is 20 mmHg or more and less than 30 mmHg, or the time required for recovery is less than 5 minutes.) |  |  | 
19 | LFFRRLQAWFK-amide (LFFRRLQAWFK-NH2) [Compound 46] | − | − |  |  | Hypotensive activity (dose/rat) 100 nmol (Table 3): + (Activity observed (+): A decrease in systolic blood pressure is less than 20 mmHg.)
20 | LFFRRLQAY-amide (LFFRRLQAY-NH2) [Compound 25] |  |  | − | + (Activity observed (+): A decrease in systolic blood pressure is less than 20 mmHg.) | 
21 | LFFRRLQAYF-amide (LFFRRLQAYF-NH2) [Compound 24] |  |  | ++ (Strong activity (++): A decrease in systolic blood pressure is 20 mmHg or more and less than 30 mmHg, or the time required for recovery is less than 5 minutes.) |  | 
22 | LFFRRLQAYFK [Compound 18] |  |  | − | ++ (Strong activity (++): A decrease in systolic blood pressure is 20 mmHg or more and less than 30 mmHg, or the time required for recovery is less than 5 minutes.) | 
23 | LFFRRLQAYFK-amide (LFFRRLQAYFK-NH2) [Compound 19] | + (Activity observed (+): A decrease in systolic blood pressure is less than 20 mmHg.) | ++ (Strong activity (++): A decrease in systolic blood pressure is 20 mmHg or more and less than 30 mmHg, or the time required for recovery is less than 5 minutes.) | ++ (Strong activity (++): A decrease in systolic blood pressure is 20 mmHg or more and less than 30 mmHg, or the time required for recovery is less than 5 minutes.) | +++ (Extremely strong activity (+++): A decrease in systolic blood pressure is 30 mmHg or more, and the time required for recovery is 5 minutes or more.) | Hypotensive activity (dose/rat) 10 nmol (Table 2): + (Activity observed (+): A decrease in systolic blood pressure is less than 20 mmHg.); Hypotensive activity (dose/rat) 100 nmol (Table 3): +++ (Extremely strong activity (+++): A decrease in systolic blood pressure is 30 mmHg or more, and the time required for recovery is 5 minutes or more.); dose dependence of hypotensive activity: enhanced their hypotensive activity in a dose-dependent manner
24 | LFFRRLQAYFKASASADYEEQKNSFHNYLK- amide [Compound 49] | +++ (Extremely strong activity (+++): A decrease in systolic blood pressure is 30 mmHg or more, and the time required for recovery is 5 minutes or more.) |  |  |  | 
